# Active and inactive are the calls of the source.
# How the values were obtained:
# NADPH oxidase 1 = NADPH oxidase 1 (Homo sapiens, UniProt Q9Y5S8); type: functional, cell-based;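 note: Cell-based assay with luminescence read-out, IC50 derived from inhibitor dose-response curves; intracellular ROS from endogenous NOX1 in intact HT29 colon cancer cells; potency of inhibitors that lower the ROS luminescence signal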
# [1] = Luminescence Cell-Based Dose Response to Identify Activators of 5'UTR Stem-Loop Driven Prion Protein mRNA Translation in H4-C Neuroglioblastoma Cells. [Related pubchem assays: 1829 (Project Summary), 1814 (Primary HTS)]; type: functional
# [2] = Luminescence Cell-Based Dose Response HTS to Identify Activators of Luciferase Translation or Activity in H4 […] Cells. [Related pubchem assays: 1829 (Project Summary), 1814 (Primary HTS)]; type: functional
# [3] = Luminescence Cell-Based Dose Confirmation HTS to Identify Activators of 5'UTR Stem-Loop Driven Alpha-Synuclein mRNA Translation in H4 Neuroglioblastoma Cells. [Related pubchem assays: 1829 (Project Summary), 1814 (Primary HTS)]; type: functional
# [4] = Luminescence Cell-Based Dose Confirmation to Identify Activators of 5'UTR Stem-Loop Driven Alpha-Synuclein mRNA Translation in H4 Neuroglioblastoma Cells. [Related pubchem assays: 1829 (Project Summary), 1814 (Primary HTS)]; type: functional
# [5] = Luminescence Cell-Based Dose Response to Identify Activators of Luciferase Translation or Activity in H4-C Neuroglioblastoma Cells. [Related pubchem assays: 1829 (Project Summary), 1814 (Primary HTS)]; type: functional
# H4 = experiment: Luminescence Cell-Based Dose Response HTS to Identify Activators of 5'UTR Stem-Loop Driven Prion Protein mRNA Translation in H4 Neuroglioblastoma Cells. [Related pubchem assays: 1829 (Project Summary), 1814 (Primary HTS)]; type: functional; conditions: Homo sapiens
# [6] = target: Epstein-Barr nuclear antigen 1 (Epstein-Barr virus (strain B95-8) (HHV-4) (Human herpesvirus 4), UniProt P03211); experiment: EBNA-1 inhibitors, dose response, biochemical, fluorescence polarization, 1536-well (AID 2381); design: species or system human gammaherpesvirus 4;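 note: fluorescence polarization of a Cy5 DNA probe bound by EBNA-1 protein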
# [7] = inhibitors of intracellular T. cruzi replication, confirmation, NIH3T3 host cells, beta-gal luminescence (AID 2044); type: functional, cell-based;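 note: intracellular parasites grown in NIH/3T3 mouse fibroblasts as host cells; luminescent beta-galactosidase reporter signal from transgenic T. cruzi replicating inside host cells; inhibitors lower the luminescence signal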
# [8] = cytotoxicity toward NIH3T3 fibroblasts, dose response, counter-screen, cell-based, ATP luminescence, mouse fibroblasts (AID 2010); type: functional;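 note: cells exposed to compound for about 90 hours before reading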
# [9] = target: Lytic switch protein BZLF1 (Epstein-Barr virus (strain B95-8) (HHV-4) (Human herpesvirus 4), UniProt P03206); experiment: EBV ZTA inhibitors, dose response, counter-screen for EBNA-1 inhibitor project, biochemical, fluorescence polarization, Epstein-Barr virus, 1536-well (AID 2377); design: species or system human gammaherpesvirus 4;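 note: fluorescence polarization of Cy5-labelled ZRE DNA probe bound by purified Zta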
# [10] = target: Peroxisome proliferator-activated receptor gamma/Nuclear receptor corepressor 2 (Homo sapiens, UniProt P37231+Q9Y618); experiment: Counterscreen for NR2E3 inverse agonists: TR-FRET-based biochemical high throughput dose response assay to identify inverse agonists of the interaction between peroxisome proliferator-activated receptor gamma (PPARg) and nuclear receptor co-repressor 2 (NCOR2).; type: functional
# [11] = target: Photoreceptor-specific nuclear receptor (Homo sapiens, UniProt Q9Y5X4); experiment: NR2E3 inverse agonists, dose response, biochemical, TR-FRET (AID 463256); type: functional
# [12] = target: Heat shock protein HSP 90-alpha (Homo sapiens, UniProt P07900); experiment: Luminescence-based dose response biochemical high throughput screening assay for inhibitors of the Heat Shock Protein 90 (HSP90). [Related pubchem assays: 1831 (Summary AID.), 1846 (Confirmation screen.), 1789 (Primary screen.)]
# Protein Tat = Protein Tat (Human immunodeficiency virus type 1 group M subtype B (isolate HXB2)(HIV-1), UniProt P04608); type: functional;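 note: tat binding to TAR RNA read out by fluorescence polarization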
# Trypsin = Trypsin (Sus scrofa, UniProt P00761); experiment: porcine trypsin inhibitors, dose response, selectivity assay for Rce1 protease inhibitor project, biochemical, quenched peptide fluorescence, cherry-pick (AID 488789)
# [13] = inhibitors of Vif binding to APOBEC3G peptide, primary screen, biochemical, TR-FRET, GST-Vif 1-94, biotin-A3G peptide, dose response retest (AID 1117319); type: functional;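 note: TR-FRET signal of purified GST-Vif binding a biotinylated A3G peptide; inhibitors lower the FRET signal by blocking Vif and A3G binding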
# CAAX prenyl protease 2 = target: T1, CAAX prenyl protease 2 (Saccharomyces cerevisiae S288c, UniProt Q03530); type: biochemical
# T1 sequence (Q03530 whole entry): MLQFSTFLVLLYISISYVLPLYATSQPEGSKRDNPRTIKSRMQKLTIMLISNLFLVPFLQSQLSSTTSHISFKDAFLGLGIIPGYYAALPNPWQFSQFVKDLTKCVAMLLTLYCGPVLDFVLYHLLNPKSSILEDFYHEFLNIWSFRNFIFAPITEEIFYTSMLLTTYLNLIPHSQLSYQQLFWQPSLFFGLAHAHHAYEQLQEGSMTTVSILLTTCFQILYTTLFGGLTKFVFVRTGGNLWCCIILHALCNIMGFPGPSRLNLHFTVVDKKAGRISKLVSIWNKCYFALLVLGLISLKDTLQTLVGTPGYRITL
# [14] = target: T2, Rac GTPase-activating protein 1 (Homo sapiens, UniProt Q9H0H5); experiment: MgcRacGAP GTPase-activating activity inhibitors, confirmation, biochemical, ADP Hunter fluorescence, primary and confirmatory (AID 624330); type: functional
# T2 sequence (Q9H0H5 whole entry): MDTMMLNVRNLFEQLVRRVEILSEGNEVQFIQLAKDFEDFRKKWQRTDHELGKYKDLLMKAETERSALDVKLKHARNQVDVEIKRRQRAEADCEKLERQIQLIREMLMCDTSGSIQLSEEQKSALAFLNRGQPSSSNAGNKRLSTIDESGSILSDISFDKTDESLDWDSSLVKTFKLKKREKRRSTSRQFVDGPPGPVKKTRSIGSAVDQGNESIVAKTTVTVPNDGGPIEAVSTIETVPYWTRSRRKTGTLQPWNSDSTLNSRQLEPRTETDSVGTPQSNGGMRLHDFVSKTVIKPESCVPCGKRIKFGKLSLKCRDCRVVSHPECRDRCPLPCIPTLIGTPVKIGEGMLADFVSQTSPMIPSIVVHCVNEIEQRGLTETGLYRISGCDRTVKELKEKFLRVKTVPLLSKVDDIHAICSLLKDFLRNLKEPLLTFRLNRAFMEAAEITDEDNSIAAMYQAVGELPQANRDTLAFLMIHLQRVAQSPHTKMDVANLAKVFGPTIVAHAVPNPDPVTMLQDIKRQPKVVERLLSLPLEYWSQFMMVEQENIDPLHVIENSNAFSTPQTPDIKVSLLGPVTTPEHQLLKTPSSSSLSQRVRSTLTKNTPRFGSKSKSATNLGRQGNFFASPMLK
# [15] = target: Protein-tyrosine kinase 2-beta (Homo sapiens, UniProt Q14289);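 note: potency of inhibitors of PYK2 kinase phosphorylation of poly-GT substrate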
# [16] = growth suppression of beta-catenin-knockout colon cells, dose response, cell-based, HCT116, human colon tumor (AID 1045); type: functional;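 note: HCT116 colon tumor cells with beta catenin knocked out; cells exposed to compound for 60 hours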
# [17] = growth suppression of PTEN-null colon cells, dose response, cell-based, HCT116 PTEN knockout (AID 1047); type: functional;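 note: HCT116 colon tumor cells with PTEN knocked out; cells exposed to compound for 60 hours before readout; potency for loss of cell viability measured by luminescence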
# [18] = target: Bifunctional protein GlmU (Mycobacterium tuberculosis, UniProt P9WMN3); experiment: Inhibitors of Mycobacterial Glucosamine-1-phosphate acetyl transferase (GlmU). Secondary screen.; design: species or system Mycobacterium tuberculosis H37Rv
# Lytic switch protein BZLF1, sequence (P03206 whole entry): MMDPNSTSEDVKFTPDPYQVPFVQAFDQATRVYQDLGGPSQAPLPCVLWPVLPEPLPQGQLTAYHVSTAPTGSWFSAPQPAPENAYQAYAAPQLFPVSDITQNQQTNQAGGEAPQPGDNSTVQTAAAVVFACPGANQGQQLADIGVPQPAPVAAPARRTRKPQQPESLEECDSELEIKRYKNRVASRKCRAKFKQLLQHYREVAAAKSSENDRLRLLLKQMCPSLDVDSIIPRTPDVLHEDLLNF
# Peroxisome proliferator-activated receptor gamma/Nuclear receptor corepressor 2, sequence (P37231 whole entry): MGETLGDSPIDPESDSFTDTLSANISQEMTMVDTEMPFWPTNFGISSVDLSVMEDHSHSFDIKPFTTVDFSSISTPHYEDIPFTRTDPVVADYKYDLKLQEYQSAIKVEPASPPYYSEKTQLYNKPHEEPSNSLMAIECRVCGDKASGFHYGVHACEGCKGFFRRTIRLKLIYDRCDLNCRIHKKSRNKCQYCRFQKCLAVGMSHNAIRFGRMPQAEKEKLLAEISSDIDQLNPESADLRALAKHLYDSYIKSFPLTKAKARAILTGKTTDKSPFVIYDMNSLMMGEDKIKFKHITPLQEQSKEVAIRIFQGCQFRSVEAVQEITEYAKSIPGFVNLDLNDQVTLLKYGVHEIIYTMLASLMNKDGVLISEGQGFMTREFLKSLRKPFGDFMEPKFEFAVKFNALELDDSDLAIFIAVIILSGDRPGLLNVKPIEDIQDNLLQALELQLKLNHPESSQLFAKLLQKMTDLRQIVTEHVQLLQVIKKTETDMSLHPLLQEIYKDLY
# Peroxisome proliferator-activated receptor gamma/Nuclear receptor corepressor 2, sequence (Q9Y618 whole entry): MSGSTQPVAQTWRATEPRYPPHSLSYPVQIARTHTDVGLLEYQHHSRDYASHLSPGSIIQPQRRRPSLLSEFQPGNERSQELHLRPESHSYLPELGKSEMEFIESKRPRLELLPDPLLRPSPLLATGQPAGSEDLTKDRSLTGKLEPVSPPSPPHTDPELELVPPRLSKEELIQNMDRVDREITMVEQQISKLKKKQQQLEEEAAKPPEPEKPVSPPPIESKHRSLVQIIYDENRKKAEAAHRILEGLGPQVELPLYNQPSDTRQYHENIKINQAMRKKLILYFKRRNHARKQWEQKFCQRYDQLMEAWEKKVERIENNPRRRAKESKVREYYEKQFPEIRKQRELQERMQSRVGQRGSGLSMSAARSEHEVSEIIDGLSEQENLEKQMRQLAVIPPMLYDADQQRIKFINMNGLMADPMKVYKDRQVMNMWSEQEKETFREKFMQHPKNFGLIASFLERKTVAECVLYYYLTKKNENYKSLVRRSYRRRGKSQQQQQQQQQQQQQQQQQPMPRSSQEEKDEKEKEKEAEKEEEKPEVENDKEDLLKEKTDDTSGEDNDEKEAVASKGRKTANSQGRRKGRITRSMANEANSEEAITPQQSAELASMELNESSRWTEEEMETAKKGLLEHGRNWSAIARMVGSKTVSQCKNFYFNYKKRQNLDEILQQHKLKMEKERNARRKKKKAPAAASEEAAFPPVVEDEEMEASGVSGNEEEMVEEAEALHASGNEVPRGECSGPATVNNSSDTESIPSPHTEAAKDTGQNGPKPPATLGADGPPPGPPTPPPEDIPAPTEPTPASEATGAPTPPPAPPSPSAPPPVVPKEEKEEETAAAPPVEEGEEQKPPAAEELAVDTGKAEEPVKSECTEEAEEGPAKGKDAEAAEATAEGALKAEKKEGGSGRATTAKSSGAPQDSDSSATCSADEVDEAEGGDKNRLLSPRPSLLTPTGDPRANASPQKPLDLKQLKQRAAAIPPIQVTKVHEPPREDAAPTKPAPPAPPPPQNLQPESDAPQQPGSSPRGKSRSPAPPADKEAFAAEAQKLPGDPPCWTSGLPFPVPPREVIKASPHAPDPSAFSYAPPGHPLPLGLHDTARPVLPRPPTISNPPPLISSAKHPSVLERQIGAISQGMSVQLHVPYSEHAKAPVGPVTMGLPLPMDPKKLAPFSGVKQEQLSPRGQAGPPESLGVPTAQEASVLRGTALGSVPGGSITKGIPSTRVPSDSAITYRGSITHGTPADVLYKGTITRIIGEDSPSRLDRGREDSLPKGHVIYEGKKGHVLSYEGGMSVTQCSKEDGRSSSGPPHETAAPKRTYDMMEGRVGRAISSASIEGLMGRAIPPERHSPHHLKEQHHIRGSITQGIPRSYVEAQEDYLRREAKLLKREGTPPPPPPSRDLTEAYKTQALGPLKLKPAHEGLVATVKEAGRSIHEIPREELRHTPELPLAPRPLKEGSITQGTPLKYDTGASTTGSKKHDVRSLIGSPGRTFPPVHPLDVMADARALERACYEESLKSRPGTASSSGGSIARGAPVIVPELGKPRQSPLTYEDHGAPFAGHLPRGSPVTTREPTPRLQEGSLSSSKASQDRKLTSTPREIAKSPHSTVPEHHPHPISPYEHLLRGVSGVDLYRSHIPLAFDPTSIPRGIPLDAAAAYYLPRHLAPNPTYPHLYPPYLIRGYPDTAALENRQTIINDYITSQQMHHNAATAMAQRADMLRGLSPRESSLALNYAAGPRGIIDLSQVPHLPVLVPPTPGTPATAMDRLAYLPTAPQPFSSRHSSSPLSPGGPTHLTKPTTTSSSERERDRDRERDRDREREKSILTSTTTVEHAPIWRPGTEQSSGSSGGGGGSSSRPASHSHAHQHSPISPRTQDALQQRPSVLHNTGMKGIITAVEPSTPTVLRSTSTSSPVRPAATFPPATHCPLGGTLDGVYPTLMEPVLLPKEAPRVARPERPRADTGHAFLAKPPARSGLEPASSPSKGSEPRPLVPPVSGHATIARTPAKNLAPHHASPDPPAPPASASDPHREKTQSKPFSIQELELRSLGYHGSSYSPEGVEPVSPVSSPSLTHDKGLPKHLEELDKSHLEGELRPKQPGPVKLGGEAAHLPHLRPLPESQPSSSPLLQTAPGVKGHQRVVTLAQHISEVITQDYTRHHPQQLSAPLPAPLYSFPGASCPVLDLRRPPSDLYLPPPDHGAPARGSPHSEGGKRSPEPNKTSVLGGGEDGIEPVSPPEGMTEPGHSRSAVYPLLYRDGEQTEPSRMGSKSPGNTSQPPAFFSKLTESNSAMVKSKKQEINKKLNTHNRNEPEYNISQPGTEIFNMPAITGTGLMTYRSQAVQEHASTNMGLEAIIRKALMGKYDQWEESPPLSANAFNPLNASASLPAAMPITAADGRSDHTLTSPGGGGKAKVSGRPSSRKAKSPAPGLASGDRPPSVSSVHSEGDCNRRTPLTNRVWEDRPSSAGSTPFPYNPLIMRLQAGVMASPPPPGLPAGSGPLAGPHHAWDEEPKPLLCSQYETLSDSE
# NADPH oxidase 1, sequence (Q9Y5S8 whole entry): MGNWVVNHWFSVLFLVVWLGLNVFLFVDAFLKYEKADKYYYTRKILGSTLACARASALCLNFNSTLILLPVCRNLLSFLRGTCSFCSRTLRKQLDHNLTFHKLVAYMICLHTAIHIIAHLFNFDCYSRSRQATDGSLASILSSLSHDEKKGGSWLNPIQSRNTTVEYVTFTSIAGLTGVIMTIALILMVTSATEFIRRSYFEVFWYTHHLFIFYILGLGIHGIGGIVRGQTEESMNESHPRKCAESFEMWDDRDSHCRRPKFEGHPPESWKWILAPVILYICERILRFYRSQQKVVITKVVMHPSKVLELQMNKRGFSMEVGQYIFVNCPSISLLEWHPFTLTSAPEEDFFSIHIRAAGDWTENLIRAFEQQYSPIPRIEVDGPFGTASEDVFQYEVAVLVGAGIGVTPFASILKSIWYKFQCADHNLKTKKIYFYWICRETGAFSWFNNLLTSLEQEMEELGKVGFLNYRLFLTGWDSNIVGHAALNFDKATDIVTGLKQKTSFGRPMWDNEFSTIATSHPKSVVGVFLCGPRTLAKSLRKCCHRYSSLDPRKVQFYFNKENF
# Protein Tat, sequence (P04608 whole entry): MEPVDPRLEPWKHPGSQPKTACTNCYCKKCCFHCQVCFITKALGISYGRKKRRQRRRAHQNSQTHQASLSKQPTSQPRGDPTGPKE
# Photoreceptor-specific nuclear receptor, sequence (Q9Y5X4 whole entry): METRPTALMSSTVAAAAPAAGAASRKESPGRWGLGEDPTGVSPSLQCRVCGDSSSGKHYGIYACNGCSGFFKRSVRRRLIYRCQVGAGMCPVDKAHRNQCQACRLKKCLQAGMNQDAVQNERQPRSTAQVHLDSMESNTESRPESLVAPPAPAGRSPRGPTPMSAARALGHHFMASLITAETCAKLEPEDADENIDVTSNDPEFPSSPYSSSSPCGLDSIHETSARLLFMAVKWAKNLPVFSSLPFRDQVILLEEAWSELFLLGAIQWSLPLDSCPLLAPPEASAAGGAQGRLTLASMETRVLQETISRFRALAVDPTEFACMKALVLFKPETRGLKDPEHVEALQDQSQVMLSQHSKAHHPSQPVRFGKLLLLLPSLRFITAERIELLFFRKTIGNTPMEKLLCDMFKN
# Epstein-Barr nuclear antigen 1, sequence (P03211 whole entry): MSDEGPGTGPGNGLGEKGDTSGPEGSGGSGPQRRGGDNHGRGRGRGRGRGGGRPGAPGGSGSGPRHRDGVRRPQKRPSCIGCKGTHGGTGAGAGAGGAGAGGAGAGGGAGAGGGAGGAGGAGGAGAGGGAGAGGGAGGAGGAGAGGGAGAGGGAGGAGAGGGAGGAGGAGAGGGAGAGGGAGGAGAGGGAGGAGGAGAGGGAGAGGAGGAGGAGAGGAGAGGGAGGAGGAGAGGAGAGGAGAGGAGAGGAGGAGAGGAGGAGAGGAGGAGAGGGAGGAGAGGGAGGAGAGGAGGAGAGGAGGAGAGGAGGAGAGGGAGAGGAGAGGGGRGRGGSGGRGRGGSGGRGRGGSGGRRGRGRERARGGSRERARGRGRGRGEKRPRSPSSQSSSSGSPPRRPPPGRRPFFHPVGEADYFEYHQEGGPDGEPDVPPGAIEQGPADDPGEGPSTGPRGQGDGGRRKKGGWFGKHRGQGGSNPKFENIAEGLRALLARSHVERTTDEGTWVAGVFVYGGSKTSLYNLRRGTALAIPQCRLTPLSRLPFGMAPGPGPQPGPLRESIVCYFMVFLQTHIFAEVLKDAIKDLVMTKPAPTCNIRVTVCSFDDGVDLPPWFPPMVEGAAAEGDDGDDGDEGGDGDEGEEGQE
smiles,measurement,setting,value
COc1cccc(OC(=O)c2sc3ccccc3c2Cl)c1,IC50,NADPH oxidase 1,> 17 µM (not active)
O=C1c2ccccc2S(=O)(=O)N1CC1CC(c2ccc(Cl)cc2)=NO1 (stereo not drawn),EC50,[1],0.805 µM (active)
same,EC50,[2],< 0.1 µM (active)
same,EC50,[3],< 0.1 µM (active)
same,EC50,[4],0.435 µM (active)
same,EC50,[5],0.407 µM (active)
same,EC50,H4,9.96 µM (active)
COc1ccc(-c2nc(-c3ccc(O)cc3)[nH]c2-c2ccc(OC)cc2)cc1,IC50,NADPH oxidase 1,9.01 µM (active)
CC(=O)Nc1ccc(NC(=O)Cc2sc(-c3cccnc3)nc2-c2ccc(C)cc2)cc1,IC50,[6],> 5.47 µM (active)
same,EC50,[7],1.28 µM (active)
same,EC50,[8],> 60 µM (not active)
same,IC50,[9],> 111 µM (not active)
O=C(Nc1cccc(-c2nc3cccnc3s2)c1)c1ccc(Cl)nc1,IC50,[10],1.8 µM (active)
same,IC50,[11],3.37 µM (active)
C=CCOC(=O)c1sc(NC(=O)c2ccc(OC)cc2)nc1C,IC50,[12],3.58 µM (active)
O=C(O)c1cc(-c2ccc(N3CCOCC3)cc2)nn1-c1ccc(F)cc1F,IC50,Protein Tat,> 100 µM (active)
same,AC50,Trypsin,6.65 µM (active)
same,IC50,[13],> 100 µM (active)
same,AC50,CAAX prenyl protease 2,13.5 µM (active)
COc1ccc(N2C(=O)CC(Nc3ccc(N4CCOCC4)cc3)C2=O)c(OC)c1 (stereo not drawn),IC50,[14],174 µM (active)
same,IC50,Protein Tat,12.4 µM (inconclusive)
Cc1ccc(C(=O)Nc2ccc(C(F)(F)F)n(C)c2=O)cc1,EC50,[1],0.317 µM (active)
same,EC50,[2],< 0.1 µM (inconclusive)
same,EC50,[4],0.311 µM (active)
same,EC50,[5],0.305 µM (active)
CCOC(=O)N1CCc2c(sc(NC(=O)C3COc4ccccc4O3)c2C(N)=O)C1 (stereo not drawn),IC50,[6],15.3 µM (not active)
same,IC50,[9],> 111 µM (not active)
CN1CCc2c(sc3ncn4nc(-c5ccccc5O)nc4c23)C1,IC50,[15],17.9 µM (not active)
same,EC50,[16],10.4 µM (active)
same,EC50,[17],13.4 µM (active)
O=C(O)CSCC(=O)Nc1ccc(-c2nc3ccccc3s2)cc1,IC50,[18],86.8 µM (active)
Cc1ccc2c(Cl)c(C(=O)Nc3cc(C)on3)sc2c1,IC50,[10],14.1 µM (not active)
same,IC50,[11],12.7 µM (not active)
